Results published in patent US8153400B1, “Nucleic acids encoding a mutT domain-containing polypeptide” (Beth Israel Deaconess Medical Center, Inc., priority 1999, dated 2012).
Entries after “also recorded” stand apart in the source; their conditions may differ.

Assays:
TrpC7 = molecular target: T1, TrpC7 (Homo sapiens, UniProt O94759, Q1189R); test: Whole-cell patch-clamp of membrane currents in tetracycline-inducible HEK293 cells expressing FLAG-TrpC7; type: cell-based; details: for gating of TrpC7 / induced plasma membrane currents: 100 μM in patch pipette, currents at -80 mV; for gating of TrpC7 / induced plasma membrane currents / gating of TrpC7: after tetracycline induction
T1 construct: expressed in transfected cells; host or cells: HEK293 cells expressing the tetracycline repressor (pcDNA6/TR); construct in pcDNA4/TO
T1 sequence (O94759 3-1503 Q1189R): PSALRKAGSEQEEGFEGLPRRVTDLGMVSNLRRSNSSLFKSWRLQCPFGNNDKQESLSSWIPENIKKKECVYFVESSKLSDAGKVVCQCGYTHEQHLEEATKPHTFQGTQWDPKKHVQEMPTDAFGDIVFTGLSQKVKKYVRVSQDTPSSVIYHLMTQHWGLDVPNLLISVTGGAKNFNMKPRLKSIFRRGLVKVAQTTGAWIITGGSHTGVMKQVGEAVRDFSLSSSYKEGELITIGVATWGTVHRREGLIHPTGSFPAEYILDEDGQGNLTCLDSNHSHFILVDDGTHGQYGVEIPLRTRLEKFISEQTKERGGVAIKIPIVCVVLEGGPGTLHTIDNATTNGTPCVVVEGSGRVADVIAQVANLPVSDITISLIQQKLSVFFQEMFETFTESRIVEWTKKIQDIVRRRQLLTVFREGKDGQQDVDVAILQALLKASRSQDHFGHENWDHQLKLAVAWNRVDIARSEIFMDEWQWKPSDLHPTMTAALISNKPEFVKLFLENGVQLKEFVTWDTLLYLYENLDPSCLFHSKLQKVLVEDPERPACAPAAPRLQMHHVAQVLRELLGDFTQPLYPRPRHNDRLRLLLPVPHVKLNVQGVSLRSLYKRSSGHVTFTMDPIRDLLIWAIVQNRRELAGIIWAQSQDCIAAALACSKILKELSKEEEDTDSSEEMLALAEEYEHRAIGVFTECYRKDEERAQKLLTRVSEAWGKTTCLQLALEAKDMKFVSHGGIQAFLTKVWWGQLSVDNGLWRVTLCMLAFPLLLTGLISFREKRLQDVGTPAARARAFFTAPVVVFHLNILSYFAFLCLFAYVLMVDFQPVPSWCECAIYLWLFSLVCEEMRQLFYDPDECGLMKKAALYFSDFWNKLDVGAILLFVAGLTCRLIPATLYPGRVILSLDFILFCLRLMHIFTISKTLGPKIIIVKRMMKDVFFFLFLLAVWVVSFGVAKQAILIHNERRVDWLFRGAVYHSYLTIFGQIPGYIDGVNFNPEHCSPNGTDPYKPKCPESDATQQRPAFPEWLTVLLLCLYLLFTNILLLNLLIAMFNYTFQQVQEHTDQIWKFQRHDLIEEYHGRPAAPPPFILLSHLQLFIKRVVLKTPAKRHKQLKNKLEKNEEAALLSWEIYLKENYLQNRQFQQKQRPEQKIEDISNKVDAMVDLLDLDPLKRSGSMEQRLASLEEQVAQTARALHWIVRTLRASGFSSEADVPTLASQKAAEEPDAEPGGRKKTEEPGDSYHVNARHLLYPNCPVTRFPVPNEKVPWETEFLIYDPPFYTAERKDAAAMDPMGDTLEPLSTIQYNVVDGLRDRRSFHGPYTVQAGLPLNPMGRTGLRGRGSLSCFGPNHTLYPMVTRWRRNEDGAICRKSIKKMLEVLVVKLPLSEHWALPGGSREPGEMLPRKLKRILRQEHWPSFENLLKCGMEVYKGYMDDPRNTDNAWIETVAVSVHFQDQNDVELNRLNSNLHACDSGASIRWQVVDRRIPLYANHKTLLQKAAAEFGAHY
Description: Wild type and tetracycline-inducible HEK293 FLAG-TrpC7 expressing cells were cultured at 37° C./5% CO2 in DMEM supplemented with 10% FBS and 2 mM glutamine. The medium was supplemented with blasticidin (5 μg/ml; Invitrogen) and zeocin (0.4 mg/ml; Invitrogen). Cells were resuspended in media containing 1 μg/ml tetracycline (Invitrogen) 24 hours before patch-clamp experiments.
For patch-clamp experiments, coverslips were transferred to the recording chamber and kept in a standard modified Ringer's solution of the following composition (in mM): NaCl 145, KCl 2.8, CaCl2 1, MgCl2 2, glucose 10, Hepes-NaOH 10, pH 7.2. Intracellular pipette-filling solutions contained (in mM): Cs-glutamate 145, NaCl 8, MgCl2 1, Cs-BAPTA 10, pH 7.2 adjusted with CsOH. […] The agonists were dissolved in the standard intracellular solution. Ionomycin (Sigma) was added to the extracellular standard solution.
Patch-clamp experiments were performed in the tight-seal whole-cell configuration at 21-25° C. High-resolution current recordings were acquired by a computer-based patch-clamp amplifier system (EPC-9, HEKA, Lambrecht, Germany). […] Immediately following establishment of the whole-cell configuration, voltage ramps of 50 ms duration spanning the voltage range of −100 to +100 mV were delivered from a holding potential of 0 mV at a rate of 0.5 Hz over a period of 200 to 400 seconds. All voltages were corrected for a liquid junction potential of 10 mV between external and internal solutions. Currents were filtered at 2.9 kHz and digitized at 100 μs intervals. Capacitive currents and series resistance were determined and corrected before each voltage ramp using the automatic capacitance compensation of the EPC-9. For analysis, the very first ramps were digitally filtered at 2 kHz, pooled and used for leak-subtraction of all subsequent current records. The low-resolution temporal development of currents at a given potential was extracted from the leak-corrected individual ramp current records by measuring the current amplitudes at voltages of −80 mV or +80 mV.

[1] = system: non-selective plasma membrane ion channel in ascidian oocytes; details: cited from earlier work
NUDT9 (mutTCCH-1) = molecular target: T2, NUDT9 (mutTCCH-1) (Homo sapiens, UniProt Q9BW91); test: Nudix type enzyme assay, substrate screen with recombinant NUDT9; type: biochemical; details: panel of nucleoside diphosphate derivatives; products AMP and ribose-5-phosphate
T2 construct: made in house; host or cells: E. coli BL21 (DE3), pET-24d
T2 sequence (Q9BW91 47-350): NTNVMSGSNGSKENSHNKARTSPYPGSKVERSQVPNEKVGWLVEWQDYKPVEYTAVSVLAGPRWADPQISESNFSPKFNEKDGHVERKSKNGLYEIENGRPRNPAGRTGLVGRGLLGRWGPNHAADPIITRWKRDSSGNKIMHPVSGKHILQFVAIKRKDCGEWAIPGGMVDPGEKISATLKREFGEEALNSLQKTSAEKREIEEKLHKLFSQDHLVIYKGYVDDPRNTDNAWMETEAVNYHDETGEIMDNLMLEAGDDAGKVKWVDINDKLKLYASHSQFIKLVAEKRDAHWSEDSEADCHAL
Description: (§1) BL21 (DE3) cells containing the respective expression plasmids were grown at 37° C. in LB broth on a shaker to an A600 of about 0.6 and induced by the addition of isopropyl-β-D-thiogalactopyranoside to a concentration of 1 mM. The cells were allowed to grow for an additional 4 h, harvested, washed by suspension in isotonic saline, centrifuged in pre-weighed centrifuge tubes, and the packed cells were stored at −80° C. […] In the case of NUDT9, enzyme was extracted in the freeze-thaw fraction and ammonium sulfate was added to 35% final concentration. The precipitate was discarded after centrifugation and ammonium sulfate was added to the supernatant to a final concentration of 50%. The precipitate was collected by centrifugation, dissolved then chromatographed, then chromatographed on a gel filtration column (Sephadex G-100). […]
(§2) Enzyme Assay—Enzyme velocities were quantified by measuring the conversion of a phosphatase-insensitive substrate, ADP-ribose, to the phosphatase-sensitive products, AMP and ribose-5-phosphate. The liberated inorganic orthophosphate was measured by the procedure of Ames and Dubin (Ames, B. N., and Dubin, D. T., J. Biol. Chem. 1960, 235:769-775). […] After 30 min at 37° C., the reaction was terminated by the addition of EDTA and inorganic orthophosphate was measured.
(§3) Km and Vmax were calculated by non-linear regression analysis of Lineweaver-Burke plots.

[2] = molecular target: T3, TrpC7 NUDT9 homology region (Homo sapiens, UniProt O94759); test: Nudix type enzyme assay (ADP-ribose hydrolysis, liberated orthophosphate), TrpC7 NUDT9 homology region; type: biochemical; details: ADP-ribose as substrate
T3 construct: an NcoI site, an artificial start codon, amino acids 1197-1503, a stop codon, and a 3′ NotI site; Met from artificial start codon (N); made in house; host or cells: E. coli BL21 (DE3), pET-24d
T3 sequence (O94759 1197-1503): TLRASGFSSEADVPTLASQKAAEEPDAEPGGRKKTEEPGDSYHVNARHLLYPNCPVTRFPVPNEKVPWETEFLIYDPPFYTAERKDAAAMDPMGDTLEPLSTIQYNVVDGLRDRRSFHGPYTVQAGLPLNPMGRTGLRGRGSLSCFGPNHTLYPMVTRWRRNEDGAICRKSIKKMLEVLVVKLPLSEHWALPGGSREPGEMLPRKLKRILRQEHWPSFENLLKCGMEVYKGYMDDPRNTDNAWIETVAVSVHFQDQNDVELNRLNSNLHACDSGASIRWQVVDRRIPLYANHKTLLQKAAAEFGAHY
Description: as §1, §2, §3

[3] = intracellular perfusion, current magnitude and latency

Nc1ncnc2c1ncn2[C@@H]1O[C@H](COP(=O)(O)OP(=O)(O)O[C@H]2O[C@H](CO)[C@@H](O)[C@H](O)[C@H]2O)[C@@H](O)[C@H]1O [ADP-glucose]
gating of TrpC7 / induced plasma membrane currents (TrpC7): no detectable gating

Nc1ncnc2c1ncn2[C@@H]1O[C@H](COP(=O)(O)OP(=O)(O)O[C@H]2O[C@H](CO)[C@@H](O)[C@H](O)[C@@H]2O)[C@@H](O)[C@H]1O [ADP-mannose]
gating of TrpC7 / induced plasma membrane currents (TrpC7): no detectable gating

Nc1ncnc2c1ncn2[C@@H]1O[C@H](COP(=O)(O)OP(=O)(O)OC[C@H]2OC(O)[C@H](O)[C@@H]2O)[C@@H](O)[C@H]1O (some centres unmarked) [ADP-ribose, Adenosine 5-diphospho (ADP)-ribose]
concentration that gates the currents [1]: ≥ 10 nM | substrate specificity of recombinant NUDT9 (NUDT9 (mutTCCH-1)): highly specific ADP-ribose pyrophosphatase | activity relative to that observed for NUDT9 [2]: approximately 1% | Vmax (specific activity) ([2]; E. coli expressed protein): 0.1 μmol/min/mg protein | gating of TrpC7 / induced plasma membrane currents (TrpC7): extremely large currents are induced; also recorded: large inward currents | currents induced by intracellular perfusion (TrpC7; 300 μM, tetracycline-induced cells, -80 mV and +80 mV): almost linear cationic currents with slight outward rectification | concentration at which TrpC7 activation begins to occur (TrpC7; [3]): 60-100 μLM | concentration at which TrpC7 activation saturates (TrpC7; [3]): around 300 μM | Kd (TrpC7; peak current amplitudes at -80 mV, 10 μM to 1 mM, read-out: apparent KD of dose-response curve for gating of TrpC7): 90 µM | effect on plasma membrane currents (TrpC7; without tetracycline induction (no FLAG-TrpC7 expression)): no detectable effect

Nc1nc2c(ncn2[C@@H]2O[C@H](COP(=O)(O)OP(=O)(O)O[C@H]3O[C@H](CO)[C@@H](O)[C@H](O)[C@H]3O)[C@@H](O)[C@H]2O)c(=O)[nH]1 [GDP-glucose, guanosine 5-diphospho (GDP)-glucose]
gating of TrpC7 / induced plasma membrane currents (TrpC7): no detectable gating

Nc1nc2c(ncn2[C@@H]2O[C@H](COP(=O)(O)OP(=O)(O)O[C@H]3O[C@H](CO)[C@@H](O)[C@H](O)[C@@H]3O)[C@@H](O)[C@H]2O)c(=O)[nH]1 [GDP-mannose]
gating of TrpC7 / induced plasma membrane currents (TrpC7): no detectable gating

N=c1c2ncn3c2ncn1[C@@H]1O[C@H](COP(=O)(O)OP(=O)(O)OC[C@H]2O[C@@H]3[C@H](O)[C@@H]2O)[C@@H](O)[C@H]1O [cyclic ADP-ribose, cyclic ADP-Ribose]
gating of TrpC7 / induced plasma membrane currents (TrpC7): no detectable gating

O=P(O)(O)O[C@@H]1[C@H](O)[C@H](O)[C@@H](OP(=O)(O)O)[C@H](OP(=O)(O)O)[C@H]1O [inositol-1,4,5-trisphosphate, inositol 1,4,5-trisphosphate]
gating of TrpC7 (TrpC7; 20 μM in patch pipette): no detectable gating

C[C@H](CCC(=O)O)C[C@H](C)C[C@H](C)C(=O)/C=C(\O)[C@H](C)C[C@H](C)C/C=C/[C@@H](C)[C@@H](O)[C@@H](C)[C@@H](O)C[C@@H]1CC[C@@](C)([C@H]2CC[C@@](C)([C@@H](C)O)O2)O1 [ionomycin, Ionomycin]
gating of TrpC7 (TrpC7; 10 μM, added to the extracellular solution): no detectable gating
